The target in assay [1] is T1, nicotinic α4β2 receptor (α4β2 nAChR) (Rattus norvegicus, UniProt P09483+P12390). Put plainly: radioligand competition with 3H-cytisine, rat brain homogenate. The class given is binding. To be noted: read-out: Ki ^a; cited from earlier work. A general note: Loss of bound radioactivity is the signal in a displacement assay; it reports binding, not function.
Assay [2] has as its target T1, nicotinic α4β2 receptor (α4β2 nAChR). The assay is described as above. The class given is binding.

Like-named read-outs stand apart in the source and are kept apart here.

By Ki is commonly meant the equilibrium dissociation constant of an inhibitor or competing ligand from its target. With `FCCCc1cncc(OC[C@@H]2CCCN2)c1` [compound 3, Nifrolidine], the Ki in assay [1] is 0.8 nM. In turn, `FCCCc1cncc(OC[C@@H]2CCN2)c1` [compound 4, 3-(2-(S)-azetidinylmethoxy)-5-(3′-fluoropropyl)pyridine] displayed a Ki in assay [2] of 0.67 nM.

Values taken from paper PMC3217100 (2011).
